Laboratory results published in paper PMC5577615, “Myticalins: A Novel Multigenic Family of Linear, Cationic Antimicrobial Peptides from Marine Mussels (Mytilus spp.)” (Marine Drugs, 2017).
Where no end group is shown, it is not given here.

What was measured:
Assay type in all cases: cell-based
[1] = test system: Vibrio anguillarum ATCC 43305; test: MIC, broth microdilution
Method: (§1) The following strains have been used in this study: Escherichia coli ATCC 25922, Staphylococcus aureus ATCC […], Vibrio anguillarum ATCC 43305, Pseudomonas aeruginosa ATCC 27853, Acinetobacter baumannii ATCC 19606, Bacillus subtilis ATCC 6051. Vibrio anguillarum ATCC 43305 was cultivated in tryptic soy broth (TSB, Becton Dickinson, Milan, Italy) implemented with 2% NaCl, all the other strains were grown in Müller-Hinton broth (MH, Becton Dickinson, Milan, Italy).
(§2) The minimum inhibiting concentration (MIC) of each myticalin synthetic peptide was calculated using the broth microdilution method. Briefly, twofold serial dilutions of each peptide were prepared in appropriate growth medium and aliquoted in the wells of a round-bottom microtiter plates (Sarstedt, Nümbrecht, Germany). An overnight culture of each bacterial strain was diluted 1:50 in fresh growth medium and grown to an OD600nm ≈ 0.3. Each well was then inoculated with a standardized inoculum in order to achieve, in a final total volume of 100 μL, a final test concentration of about 5 × 10^5 CFU/mL. The plate was then sealed to minimize evaporation and incubated at 37 °C for 24 h. The day after, the MIC was identified as the lowest concentration of the peptide that impaired any visible bacterial growth.

[2] = test system: Staphylococcus aureus ATCC 25923; test: MIC, broth microdilution
Method: as §1, §2

[3] = test system: Pseudomonas aeruginosa ATCC 27853; test: MIC, broth microdilution
Method: as §1, §2

[4] = test system: Escherichia coli ATCC 25922; test: MIC, broth microdilution
Method: as §1, §2

[5] = test system: Acinetobacter baumannii ATCC 19606; test: MIC, broth microdilution
Method: as §1, §2

[6] = test system: Bacillus subtilis ATCC 6051; test: MIC, broth microdilution
Method: as §1, §2

[7] = test system: tested bacterial strains (Gram-positive and Gram-negative); conditions: for antimicrobial activity / spectrum in words: tested Gram-positive and Gram-negative strains
Method: as §1, §2

[8] = Vibrio anguillarum ATCC 43305, tryptic soy broth with 2% NaCl, about 5 × 10^5 CFU/mL, 37 °C, 24 h, mode of four independent experiments
[9] = Staphylococcus aureus ATCC 25923, Müller-Hinton broth, about 5 × 10^5 CFU/mL, 37 °C, 24 h, mode of four independent experiments
[10] = Pseudomonas aeruginosa ATCC 27853, Müller-Hinton broth, about 5 × 10^5 CFU/mL, 37 °C, 24 h, mode of four independent experiments
[11] = Escherichia coli ATCC 25922, Müller-Hinton broth, about 5 × 10^5 CFU/mL, 37 °C, 24 h, mode of four independent experiments
[12] = Acinetobacter baumannii ATCC 19606, Müller-Hinton broth, about 5 × 10^5 CFU/mL, 37 °C, 24 h, mode of four independent experiments
[13] = Bacillus subtilis ATCC 6051, Müller-Hinton broth, about 5 × 10^5 CFU/mL, 37 °C, 24 h, mode of four independent experiments

Row | Substance | Minimal inhibitory concentration (MIC) ([1]; ATCC 43305, 24 h) | Minimal inhibitory concentration (MIC) ([2]; ATCC 25923, 24 h) | Minimal inhibitory concentration (MIC) ([3]; ATCC 27853, 24 h) | Minimal inhibitory concentration (MIC) ([4]; ATCC 25922, 24 h) | Minimal inhibitory concentration (MIC) ([5]; ATCC 19606, 24 h) | Minimal inhibitory concentration (MIC) ([6]; ATCC 6051, 24 h) | antimicrobial activity / spectrum in words [7] | MIC toward all the tested bacterial strains ([7]; 24 h) | Minimal inhibitory concentration (MIC) [1, 8] | Minimal inhibitory concentration (MIC) [2, 9] | Minimal inhibitory concentration (MIC) [3, 10] | Minimal inhibitory concentration (MIC) [4, 11] | Minimal inhibitory concentration (MIC) [5, 12] | Minimal inhibitory concentration (MIC) [6, 13]
1 | LRWTPTPSYPRYPTRSRGSRWSR-NH2 [Myticalin B1] | >32 µM | >32 µM | >32 µM | 8 to 16 µM | 8 µM | 32 µM | moderate antimicrobial activity |  |  |  |  |  |  | 
2 | RRRRRFRRVIRRIRLPKYLTINTE [Myticalin C6] | >32 µM | 8 µM | 32 µM | 4 µM | 2 µM | 32 µM | moderate antimicrobial activity |  |  |  |  |  |  | 
3 | RRRRRYRYWRRGLTIQGRPKSLPLNTGD [Myticalin C9] | >32 µM | 2 µM | 8 µM | 4 µM | 2 µM | 4 µM | broad spectrum of activity |  |  |  |  |  |  | 
4 | WGRRWRIRIPRLPRPWPPRPKWPRSATINTDQ [Myticalin D2] | >32 µM | 16 to 32 µM | 4 µM | 4 µM | 2 µM | 2 µM | broad spectrum of activity |  |  |  |  |  |  | 
5 | WPRFPKPRKPTYPGPTYPGPTWPRPTWRRSATIDTEH [Myticalin D5] | >32 µM | >32 µM | >32 µM | >32 µM | >32 µM | >32 µM |  | > 32 µM |  |  |  |  |  | 
6 | YSWPRMPRIPRLPRYPRYPRYPRWPRHPTIYA-NH2 [Myticalin A8] |  |  |  |  |  |  | broad spectrum of activity |  | >32 µM | 16 µM | 8 µM | 1 µM | 1 µM | 4 µM
7 | YSWPRMPRIPRLPRYPRYPRYPRWPRWPRQPTIYA-NH2 [Myticalin A5] |  |  |  |  |  |  |  |  | >32 µM | 8 to 16 µM | 4 to 8 µM | 2 µM | 4 µM | 4 µM
